Experimental findings from paper PMC6287539 (International Journal for Parasitology: Drugs and Drug …, 2018) are described below.

Test [1] concerns the target T1, Hco-ACC-1 (in the Hco-ACC-1/2 heteromeric channel) (Haemonchus contortus, UniProt A0A219KVV5+A0A219KWM7).
T1 sequence (A0A219KVV5 23-459): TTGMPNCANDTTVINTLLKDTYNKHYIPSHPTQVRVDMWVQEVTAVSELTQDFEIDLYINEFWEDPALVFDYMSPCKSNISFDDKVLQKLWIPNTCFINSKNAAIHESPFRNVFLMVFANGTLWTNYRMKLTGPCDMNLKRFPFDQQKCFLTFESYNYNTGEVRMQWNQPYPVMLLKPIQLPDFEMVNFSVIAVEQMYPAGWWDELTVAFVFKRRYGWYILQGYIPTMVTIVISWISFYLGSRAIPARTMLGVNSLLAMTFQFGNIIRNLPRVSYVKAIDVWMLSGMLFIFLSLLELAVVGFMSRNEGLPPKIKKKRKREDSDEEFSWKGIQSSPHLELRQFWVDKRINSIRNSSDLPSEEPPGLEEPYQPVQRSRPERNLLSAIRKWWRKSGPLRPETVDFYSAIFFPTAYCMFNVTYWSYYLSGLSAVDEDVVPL
T1 sequence (A0A219KWM7 18-443): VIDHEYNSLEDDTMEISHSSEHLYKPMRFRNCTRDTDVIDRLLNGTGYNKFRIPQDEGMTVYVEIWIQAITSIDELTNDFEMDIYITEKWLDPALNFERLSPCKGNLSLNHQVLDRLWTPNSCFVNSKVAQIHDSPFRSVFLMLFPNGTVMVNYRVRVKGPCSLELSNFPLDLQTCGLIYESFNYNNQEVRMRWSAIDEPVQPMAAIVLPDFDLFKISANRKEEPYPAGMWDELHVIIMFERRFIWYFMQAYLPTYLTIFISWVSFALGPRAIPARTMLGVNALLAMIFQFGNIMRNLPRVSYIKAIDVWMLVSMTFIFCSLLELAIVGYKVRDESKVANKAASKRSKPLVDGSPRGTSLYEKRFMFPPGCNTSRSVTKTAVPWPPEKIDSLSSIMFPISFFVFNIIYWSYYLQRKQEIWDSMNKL
The experiment in a line: two-electrode voltage clamp in Xenopus oocytes, dose-response. The test is classed as cell-based. On the technique in general: Two-electrode voltage clamp holds a large cell at a set potential and records current.

Test [2] addresses T2, Hco-ACC-2 (homomeric channel) (Haemonchus contortus, UniProt A0A219KWM7).
T2 sequence (A0A219KWM7 18-443): T1 sequence (A0A219KWM7 18-443)
Described as above. The test is classed as cell-based.

Each structure is given as a SMILES string.

The EC50 is the concentration at which the effect is half-maximal. A high value points to weaker potency.

As to `C[N+](C)(C)CCOC(N)=O` [carbachol], the EC50 was found to be 32.5 ± 3 µM in test [1] and 46 ± 2 µM in test [2].
